In patent US12310975B2, “Modulators of BCL6 proteolysis and associated methods of use” (Arvinas Operations, Inc., priority 2019, dated 2025):
Read-outs that look alike come from different tables or passages of the source.

Target: BCL6 (Homo sapiens (Human), UniProt P41182)
Experiment: Immunofluorescence high content imaging of BCL6 degradation in T47D cells
Type: cell-based
Conditions: for DC50: class symbols A-D, read-out: EC50 (nM)*
Procedure, shortened: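 Following a 3-day incubation with serially diluted bifunctional compounds (final top 0.1 or 1 μM), T47D cells were PFA-fixed and immunostained for BCL6. Nuclear BCL6 signal was captured on a high-content imager.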

IC50	Dmax (T47D cells)	IC50 (T47D cells)	other results	Structure (SMILES)
–	–	–	DC50: 50 to 100 nM	CNC(=O)COc1cc2cc(Nc3nc(N4CCC(Cc5cn(CCOCCOc6ccc7c(c6)C(=O)N(C6CCC(=O)NC6=O)C7=O)nn5)CC4)ncc3Cl)ccc2n(C)c1=O (centres unmarked) [compound 113, 2-((6-((5-chloro-2-(4-((1-(2-(2-((2-(2,6-dioxopiperidin-3-yl)-1,3-dioxoisoindolin-5-yl)oxy)ethoxy)ethyl)-1H-1,2,3-triazol-4-yl)methyl)piperidin-1-yl)pyrimidin-4-yl)amino)-1-methyl-2-oxo-1,2-dihydroquinolin-3-yl)oxy)-N-methylacetamide]
–	–	–	DC50: 50 to 100 nM	CNC(=O)COc1cc2cc(Nc3nc(N4CCC(OCCCOc5ccc6c(c5)CN(C5CCC(=O)NC5=O)C6=O)CC4)ncc3Cl)ccc2n(C)c1=O (centres unmarked) [compound 139, 2-((6-((5-chloro-2-(4-(3-((2-(2,6-dioxopiperidin-3-yl)-1-oxoisoindolin-5-yl)oxy)propoxy)piperidin-1-yl)pyrimidin-4-yl)amino)-1-methyl-2-oxo-1,2-dihydroquinolin-3-yl)oxy)-N-methylacetamide]
≥ 100 nM	–	–	–	CNC(=O)COc1cc2cc(Nc3nc(N4CCC(CN5CC6(C5)CN(c5ccc7c(c5)C(=O)N(C5CCC(=O)NC5=O)C7=O)C6)CC4)ncc3Cl)ccc2n(C)c1=O (centres unmarked) [compound 248, 2-((6-((5-chloro-2-(4-((6-(2-(2,6-dioxopiperidin-3-yl)-1,3-dioxoisoindolin-5-yl)-2,6-diazaspiro[3.3]heptan-2-yl)methyl)piperidin-1-yl)pyrimidin-4-yl)amino)-1-methyl-2-oxo-1,2-dihydroquinolin-3-yl)oxy)-N-methylacetamide]
≥ 100 nM	–	–	–	CNC(=O)CCC1Oc2cc(Nc3nc(N4CCN(C(C)(C)C5CCN(c6ccc7c(c6)C(=O)N(C6CCC(=O)NC6=O)C7=O)CC5)CC4)ncc3Cl)ccc2N(C)C1=O (centres unmarked) [compound 287, 3-[7-({5-chloro-2-[4-(2-{1-[2-(2,6-dioxopiperidin-3-yl)-1,3-dioxo-2,3-dihydro-1H-isoindol-5-yl]piperidin-4-yl}propan-2-yl)piperazin-1-yl]pyrimidin-4-yl}amino)-4-methyl-3-oxo-3,4-dihydro-2H-1,4-benzoxazin-2-yl]-N-methylpropanamide]
< 10 nM	–	–	Dmax (T47D): 50 to 70%	CCn1c(=O)c(OCC(=O)NC)cc2cc(Nc3cc(N4CCN(C(C)(C)C5CCN(c6ccc7c(c6)C(=O)N(C6CCC(=O)NC6=O)C7=O)CC5)CC4)ncc3Cl)ccc21 (centres unmarked) [compound 300, 2-{[6-({5-chloro-2-[4-(2-{1-[2-(2,6-dioxopiperidin-3-yl)-1,3-dioxo-2,3-dihydro-1H-isoindol-5-yl]piperidin-4-yl}propan-2-yl)piperazin-1-yl]pyridin-4-yl}amino)-1-ethyl-2-oxo-1,2-dihydroquinolin-3-yl]oxy}-N-methylacetamide]
10 to 50 nM	–	–	Dmax (T47D): < 50%	CCn1c(=O)c(OCC(=O)NC)cc2cc(Nc3nc(N4CCN(CC5CN(C6CN(c7ccc8c(c7)C(=O)N(C7CCC(=O)NC7=O)C8=O)C6)C5)CC4)ncc3Cl)ccc21 (centres unmarked) [compound 302, 2-{[6-({5-chloro-2-[4-({1′-[2-(2,6-dioxopiperidin-3-yl)-1,3-dioxo-2,3-dihydro-1H-isoindol-5-yl]-[1,3′-biazetidin]-3-yl}methyl)piperazin-1-yl]pyrimidin-4-yl}amino)-1-ethyl-2-oxo-1,2-dihydroquinolin-3-yl]oxy}-N-methylacetamide]
50 to 100 nM	–	–	Dmax (T47D): < 50%	CCn1c(=O)c(OCC(=O)NC)cc2cc(Nc3nc(N4CCO[C@H](COc5ccc6c(c5)C(=O)N(C5CCC(=O)NC5=O)C6=O)C4)ncc3Cl)ccc21 (stereo partly drawn) [compound 294, 2-{[6-({5-chloro-2-[(2S)-2-({[2-(2,6-dioxopiperidin-3-yl)-1,3-dioxo-2,3-dihydro-1H-isoindol-5-yl]oxy}methyl)morpholin-4-yl]pyrimidin-4-yl}amino)-1-ethyl-2-oxo-1,2-dihydroquinolin-3-yl]oxy}-N-methylacetamide]
≥ 100 nM	–	–	Dmax (T47D): ≥ 70%	CNC(=O)COc1cc2cc(Nc3nc(N4CCN(C)CC4)ncc3Cl)ccc2n(CCCOc2ccc3c(c2)C(=O)N(C2CCC(=O)NC2=O)C3=O)c1=O (centres unmarked) [compound 244, 2-((6-((5-chloro-2-(4-methylpiperazin-1-yl)pyrimidin-4-yl)amino)-1-(3-((2-(2,6-dioxopiperidin-3-yl)-1,3-dioxoisoindolin-5-yl)oxy)propyl)-2-oxo-1,2-dihydroquinolin-3-yl)oxy)-N-methylacetamide]
–	≥ 70%	< 10 nM	–	CNC(=O)COc1cc2cc(Nc3nc(N4CCC5(CC4)CC(OC4CCN(c6cccc7c6C(=O)N(C6CCC(=O)NC6=O)C7=O)CC4)C5)ncc3Cl)ccc2n(C(C)C)c1=O (centres unmarked) [compound 393, 2-{[6-({5-chloro-2-[2-({1-[2-(2,6-dioxopiperidin-3-yl)-1,3-dioxo-2,3-dihydro-1H-isoindol-4-yl]piperidin-4-yl}oxy)-7-azaspiro[3.5]nonan-7-yl]pyrimidin-4-yl}amino)-2-oxo-1-(propan-2-yl)-1,2-dihydroquinolin-3-yl]oxy}-N-methylacetamide]
–	≥ 70%	< 10 nM	–	CNC(=O)COc1cc2cc(Nc3nc(N4CCC(CN5CCC(c6ccc7c(c6)C(=O)N(C6CCC(=O)NC6=O)C7=O)CC5)CC4)ncc3Cl)ccc2n(C(C)C)c1=O (centres unmarked) [compound 365, 2-{[6-({5-chloro-2-[4-({4-[2-(2,6-dioxopiperidin-3-yl)-1,3-dioxo-2,3-dihydro-1H-isoindol-5-yl]piperidin-1-yl}methyl)piperidin-1-yl]pyrimidin-4-yl}amino)-2-oxo-1-(propan-2-yl)-1,2-dihydroquinolin-3-yl]oxy}-N-methylacetamide]
–	50 to 70%	10 to 50 nM	–	CNC(=O)COc1cc2cc(Nc3nc(N4CCC(CN5[C@H](C)CN(c6cccc(C(=O)NC7CCC(=O)NC7=O)c6F)C[C@@H]5C)CC4)ncc3Cl)ccc2n(C)c1=O (mixture of isomers) [compound 370, rac-3-[(3R,5S)-4-({1-[5-chloro-4-({1-methyl-3-[(methylcarbamoyl)methoxy]-2-oxo-1,2-dihydroquinolin-6-yl}amino)pyrimidin-2-yl]piperidin-4-yl}methyl)-3,5-dimethylpiperazin-1-yl]-N-(2,6-dioxopiperidin-3-yl)-2-fluorobenzamide]
–	≥ 70%	< 10 nM	–	CNC(=O)COc1cc2cc(Nc3nc(N4CC5(CC(OC6CCN(c7cccc8c7C(=O)N(C7CCC(=O)NC7=O)C8=O)CC6)C5)C4)ncc3Cl)ccc2n(C(C)C)c1=O (centres unmarked) [compound 406, 2-{[6-({5-chloro-2-[6-({1-[2-(2,6-dioxopiperidin-3-yl)-1,3-dioxo-2,3-dihydro-1H-isoindol-4-yl]piperidin-4-yl}oxy)-2-azaspiro[3.3]heptan-2-yl]pyrimidin-4-yl}amino)-2-oxo-1-(propan-2-yl)-1,2-dihydroquinolin-3-yl]oxy}-N-methylacetamide]
–	–	–	DC50: 10 to 50 nM	CNC(=O)COc1cc2cc(Nc3nc(N4CCC(c5cn(CCOCCOc6ccc7c(c6)C(=O)N(C6CCC(=O)NC6=O)C7=O)nn5)CC4)ncc3Cl)ccc2n(C)c1=O (centres unmarked) [compound 107, 2-((6-((5-chloro-2-(4-(1-(2-(2-((2-(2,6-dioxopiperidin-3-yl)-1,3-dioxoisoindolin-5-yl)oxy)ethoxy)ethyl)-1H-1,2,3-triazol-4-yl)piperidin-1-yl)pyrimidin-4-yl)amino)-1-methyl-2-oxo-1,2-dihydroquinolin-3-yl)oxy)-N-methylacetamide]
–	50 to 70%	10 to 50 nM	–	CNC(=O)COc1cc2cc(Nc3nc(N4CCN(CCC5CCN(c6ccc7c(c6)C(=O)N(C6CCC(=O)NC6=O)C7=O)CC5)CC4)ncc3Cl)ccc2n(C)c1=O (centres unmarked) [compound 322, 2-{[6-({5-chloro-2-[4-(2-{1-[2-(2,6-dioxopiperidin-3-yl)-1,3-dioxo-2,3-dihydro-1H-isoindol-5-yl]piperidin-4-yl}ethyl)piperazin-1-yl]pyrimidin-4-yl}amino)-1-methyl-2-oxo-1,2-dihydroquinolin-3-yl]oxy}-N-methylacetamide]
–	50 to 70%	< 10 nM	–	CNC(=O)COc1cc2cc(Nc3nc(N4CCN(C(C)C5CCN(c6ccc7c(c6)C(=O)N(C6CCC(=O)NC6=O)C7=O)CC5)CC4)ncc3Cl)ccc2n(C)c1=O (centres unmarked) [compound 335, 2-{[6-({5-chloro-2-[4-(1-{1-[2-(2,6-dioxopiperidin-3-yl)-1,3-dioxo-2,3-dihydro-1H-isoindol-5-yl]piperidin-4-yl}ethyl)piperazin-1-yl]pyrimidin-4-yl}amino)-1-methyl-2-oxo-1,2-dihydroquinolin-3-yl]oxy}-N-methylacetamide]
–	< 50%	50 to 100 nM	–	CNC(=O)COc1cc2cc(Nc3nc(N4CCC(CN5CCC6(CC5)CN(c5cccc(C(=O)NC7CCC(=O)NC7=O)c5OC)C6)CC4)ncc3Cl)ccc2n(C(C)C)c1=O (centres unmarked) [compound 420, 3-[7-({1-[5-chloro-4-({3-[(methylcarbamoyl)methoxy]-2-oxo-1-(propan-2-yl)-1,2-dihydroquinolin-6-yl}amino)pyrimidin-2-yl]piperidin-4-yl}methyl)-2,7-diazaspiro[3.5]nonan-2-yl]-N-(2,6-dioxopiperidin-3-yl)-2-methoxybenzamide]
10 to 50 nM	–	–	Dmax (T47D): ≥ 70%	CNC(=O)COc1cc2cc(Nc3nc(N4CCN(C(C)(C)C5CCN(c6ccc7c(c6)C(=O)N(C6CCC(=O)NC6=O)C7=O)CC5)CC4)ncc3Cl)ccc2n(C(C)C)c1=O (centres unmarked) [compound 299, 2-{[6-({5-chloro-2-[4-(2-{1-[2-(2,6-dioxopiperidin-3-yl)-1,3-dioxo-2,3-dihydro-1H-isoindol-5-yl]piperidin-4-yl}propan-2-yl)piperazin-1-yl]pyrimidin-4-yl}amino)-2-oxo-1-(propan-2-yl)-1,2-dihydroquinolin-3-yl]oxy}-N-methylacetamide]
